Here are results for one molecule from publication PMC6352943, “Novel pyrazolo[3,4-d]pyrimidines: design, synthesis, anticancer activity, dual EGFR/ErbB2 receptor tyrosine kinases inhibitory activity, effects on cell cycle profile and caspase-3-mediated apoptosis” (Journal of Enzyme Inhibition and Medicinal Chemistry, 2019).

One experiment concerns NCI-H460 (EGFR-WT). Put plainly: MTT cell viability assay. Type of experiment: cell-based, human. The procedure: All of the other chemicals and reagents were from Sigma, or Invitrogen.
Measure the background absorbance of multiwell plates at 690 nm and subtract from the 570 nm measurement. […] Each experiment was carried out in triplicate.
In general terms: Tetrazolium assays rely on reduction of a dye to a coloured formazan, in cell work by metabolically active cells.

The subject of the next experiment is NCI-H226. Put plainly: MTT cell viability assay. Particulars: Homo sapiens, NCI-H226 lung cancer, 48 h, mean ± SD of three experiments, read-out: IC50 (concentration required for 50% inhibition of cell viability). It is filed as cell-based. As to the method: Cell Line cells were obtained from American Type Culture Collection, cells were cultured using Dulbecco's Modified Eagle's medium (DMEM) (Invitrogen/Life Technologies) supplemented with 10% foetal bovine serum (FBS) (Hyclone), 10 μg/mL of insulin (Sigma), and 1% penicillin-streptomycin. All of the other chemicals and reagents were from Sigma, or Invitrogen. Plate cells (cells density 1.2 – 1.8 × 10,000 cells/well) in a volume of 100 µL complete growth medium and 100 μL of the tested compound per well in a 96-well plate for 24 h before the MTT assay.
Remove culture medium to a centrifuge tube. […] Add 2.0 to 3.0 ml of Trypsin EDTA solution to flask and observe cells under an inverted microscope until cell layer is dispersed. Add 6 to 8 ml of complete growth medium and aspirate cells by gently pipetting. […]
The 3–(4, 5-dimethylthiazol-2-yl)-2,5-diphenyltetrazolium bromide (MTT) method[30] of monitoring in vitro cytotoxicity is well suited for use with multiwell plates. […] The number of living cells in the presence or absence (control) of the various test compounds is directly proportional to the intensity of the blue colour, measured by spectrophotometry using (ROBONIK P2000 Spectrophotometer) at a wavelength of 570 nm. Measure the background absorbance of multiwell plates at 690 nm and subtract from the 570 nm measurement. […]

Experiment [1] deals with OVCAR-4 cells. Briefly: Cell cycle analysis by flow cytometry (PI). It is filed as cell-based, human. As to the method:
After treatment, the cells were washed twice with ice-cold PBS, collected by centrifugation, and fixed in ice-cold 70% (v/v) ethanol, washed with PBS, re-suspended with 0.1 mg/mL RNase, stained with […] propidium iodide (PI), and analysed by flow cytometry using FACS Calibur (Becton Dickinson)[31]. The cell cycle distributions were calculated using Cell-Quest software (Becton Dickinson).
(Flow cytometry measures light scatter and fluorescence of single cells or particles in a stream.)

Experiment [2] concerns OVCAR-4 cells. Briefly: Annexin V-FITC/PI apoptosis assay. It is filed as cell-based, human. The procedure:
Annexin V fluorescein isothiocyanate (FITC)/PI apoptosis detection kit (BD Biosciences) was used according to the manufacturer’s instructions to measure the apoptotic activity of compound 7d. OVCAR-4 cells were incubated with Annexin V-FITC. […] The cells then were collected by trypsinisation and 0.5 × 10^6 cells were washed twice with PBS and stained with 5 μL Annexin V-FITC and 5 μL PI in 1 × binding buffer for 15 min at room temperature in the dark. Analyses were performed using FACS Calibur flow cytometer (BD Biosciences, San Jose, CA).
The apoptotic activity of compound 7d was further studied using Annexin V-FITC assay, which includes dual staining using Annexin V, a Ca^2+-dependent protein, and Propidium iodide (PI). Annexin V binds to phosphatidylserine (PS) expressed only on the surface of the apoptotic cells and fluoresces green after interacting with the fluorochrome labelled annexin-V. On the other hand, PI stains DNA and enters only dead cells. This assay can give a differential analysis to the percentages of living, early apoptotic, late apoptotic and necrotic cells. […] Moreover, a significant increase in the percentage of Annexin-V positive cells (almost 9 folds more than control) occurred indicating an early apoptosis (lower right quadrant). In addition, an increase by 7 folds more than control in the percentage of PI positive cells (upper left quadrant) indicating necrotic cells. Some treated cells were in a late apoptotic stage (upper right quadrant), this was indicated by the significant increase in the percentage of Annexin V positive, PI positive cells (16 folds more than control).

The mark [3] stands for this setting: OVCAR-4, 7d at IC50 (1.74 μM), 24 h.

For the molecule `Cc1nn(-c2ccc(F)cc2)c2ncnc(Nc3ccc(F)c(Cl)c3)c12` [Compound 7d, N-(3-Chloro-4-fluorophenyl)-1–(4-fluorophenyl)-3-methyl-1H-pyrazolo[3,4-d] pyrimidin-4-amine], the IC50 with NCI-H460 (EGFR-WT) (Homo sapiens, NCI-H460 (EGFR-WT) lung cancer, MTT, 48 h, mean ± SD of three experiments, read-out: IC50 (concentration required for 50% inhibition of cell viability)) stood at 18.7 ± 0.71 µM. For the same molecule, the “Potency relative to Erlotinib (fold more potent)” value in the experiment on NCI-H460 (EGFR-WT) (NCI-H460 EGFR-WT, from IC50 values) is reported as ~3.5 fold. Besides, in the experiment on NCI-H226, the IC50 is 17.4 ± 2.13 µM. In the experiment with OVCAR-4 cells [1] (setting [3]), the “Cell cycle distribution %Apoptosis (pre-G1)” value is listed as 21.71%, the “Cell cycle distribution %G0/G1” value is 29.77%, the “Cell cycle distribution %G2/M” value stood at 36.44% and the “Cell cycle distribution %S” value is given as 33.79%. In the experiment with OVCAR-4 cells [1] (OVCAR-4, at IC50, 24 h), the “Increase in cells accumulated in pre-G1 phase compared to control” value was ~11 folds and the “Increase in percentage of cells at G2/M phases compared to control” value is 5 folds. Also, the “%Apoptosis Early” value in the experiment on OVCAR-4 cells [2] (OVCAR-4, 7d at IC50 (1.74 μM), 24 h, lower right quadrant) was 7.52%. Also, the “%Necrosis” value with OVCAR-4 cells [2] (OVCAR-4, 7d at IC50 (1.74 μM), 24 h, upper left quadrant) is on record as 2.88%. In addition, the “%Apoptosis Late” value with OVCAR-4 cells [2] (OVCAR-4, 7d at IC50 (1.74 μM), 24 h, upper right quadrant) is 11.31%. In the experiment on OVCAR-4 cells [2] (OVCAR-4, at IC50, 24 h), the “Increase in percentage of Annexin V positive, PI positive cells (late apoptosis) versus control” value is reported as 16 folds; the “Increase in percentage of Annexin-V positive cells (early apoptosis) versus control” value is on record as ~9 folds; the “Increase in percentage of PI positive cells (necrotic cells) versus control” value came out at 7 folds.
